Here are results for two compounds from patent US20180064714A1 (Mylan Laboratories Ltd, priority 2015, published 2018).

The nature of series [1]: Physical and chemical stability on storage, analysed by PXRD for polymorph integrity. The format is physicochemical. How it is done:
The Cu-anode X-ray tube was operated at 40 kV and 30 mA. The experiments were conducted over the 2θ range of 2.0°-50.0°, 0.030° step size and 0.4 seconds step time.
The Cu-anode X-ray tube was operated at 40 kV and 30 mA. The experiments were conducted over the […] of 2.0°-50.0°, 0.030° step size and 0.4 seconds step time.
As used herein, a compound or pharmaceutical composition is considered “stable” where the HPLC purity of the compound or premix changes by less than about 1% when stored at 5° C.±3° C. and/or at 25° C./60% relative humidity (RH). In certain embodiments, the “stable” compound or premix is stored at 5° C.±3° C. In other embodiments, the “stable” compound or premix is stored at 25° C./60% relative humidity (RH).

The conditions of series [2]: cited from earlier work.

Each structure is given as a SMILES string.

`CC[C@H](Nc1ncnc2nc[nH]c12)c1nc2cccc(F)c2c(=O)n1-c1ccccc1` [Amorphous Idelalisib, 5-fluoro-3-phenyl-2-[(1S)-1-(7H-purin-6-ylamino)propyl]-4(3H)-quinazolinone]: the “Initial PXRD analysis” value in series [1] (at 5° C. ± 3° C.), in series [1] (at 25° C./60% RH) and in series [1] (at 40° C./75% RH) was “Amorphous” each time.
As for `CC[C@H](Nc1ncnc2[nH]cnc12)c1nc2cccc(F)c2c(=O)n1-c1ccccc1` [Idelalisib, 5-fluoro-3-phenyl-2-[(1S)-1-(7H-purin-6-ylamino)propyl]-4(3H)-quinazolinone], in series [2], the Solubility in water result was “poorly soluble”.
